The results in this text go back to PubChem BioAssay (NCI).

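Grown in 96-well plates, cells were treated for 48 hours with each compound at five concentrations. Insufficient inhibition: endpoint recorded as highest concentration tested. TGI marks complete inhibition of growth.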

Among the test systems are MOLT-4 leukemia; SK-MEL-5 melanoma; SNB-75 CNS; HCT-15 colon; UACC-62 melanoma; OVCAR-8 ovarian; HL-60(TB) leukemia; NCI-H226 lung.
Holding throughout (test): NCI anticancer screen, dose series, 48 h

Regarding `Cc1cc2c(c(C(N)=O)c1C)-c1cccc(F)c1C2=O`, the TGI in the test on MOLT-4 leukemia was greater than 100 µM; in the test with SK-MEL-5 melanoma, greater than 100 µM; in the test on SNB-75 CNS it was 66.5 µM; in the test on HCT-15 colon, greater than 100 µM; in the test on UACC-62 melanoma, greater than 100 µM; with OVCAR-8 ovarian, greater than 100 µM.
Consider `CCO/C=C1\N=C(c2ccc(Cl)c(Cl)c2)OC1=O`, for which the TGI in the test with MOLT-4 leukemia, in the test on SK-MEL-5 melanoma, in the test with SNB-75 CNS, in the test on HL-60(TB) leukemia, with HCT-15 colon and in the test with UACC-62 melanoma was greater than 100 µM in each case. Also, the TGI in the test with OVCAR-8 ovarian and with NCI-H226 lung was greater than 100 µM in each case.
Take `O=C1C2C(C(=O)N1c1ccccc1)C1c3ccccc3C2C2C(=O)N(c3ccccc3)C(=O)C21` (stereo unspecified): the TGI in the test with MOLT-4 leukemia is greater than 100 µM; in the test with SK-MEL-5 melanoma, greater than 100 µM; in the test with SNB-75 CNS, 22.6 µM; in the test on HL-60(TB) leukemia it was 44.9 µM; in the test on HCT-15 colon it was greater than 100 µM; in the test on UACC-62 melanoma it was greater than 100 µM. Besides, the TGI in the test on OVCAR-8 ovarian and in the test on NCI-H226 lung was greater than 100 µM in each case.
Take `O=c1cc(-c2ccccn2)[nH]c2cccc(F)c12`: the TGI in the test with MOLT-4 leukemia, in the test on SK-MEL-5 melanoma, in the test with SNB-75 CNS, in the test with HL-60(TB) leukemia, with UACC-62 melanoma and in the test with OVCAR-8 ovarian was greater than 100 µM each time. Also, the TGI in the test on NCI-H226 lung is greater than 100 µM.
With `CCOC(=O)NC(=O)c1cn(CCN2CCN(C(=O)CNC(=O)CNC(=O)Cn3cc(C(=O)NC(=O)OCC)c(=O)[nH]c3=O)CC2)c(=O)[nH]c1=O`, the TGI in the test on MOLT-4 leukemia, in the test on SNB-75 CNS, with HL-60(TB) leukemia, in the test on HCT-15 colon, in the test on UACC-62 melanoma and in the test with OVCAR-8 ovarian was greater than 100 µM in each case.
`Cc1ccc(S(=O)(=O)N/N=C(\c2nc3ccc(Cl)cc3[nH]c2=O)C(O)c2ccco2)cc1` (stereo unspecified): the TGI with MOLT-4 leukemia, in the test with SK-MEL-5 melanoma, in the test with SNB-75 CNS, in the test on HL-60(TB) leukemia, in the test with HCT-15 colon and in the test with UACC-62 melanoma was greater than 100 µM throughout. In addition, in the test with NCI-H226 lung, the TGI is greater than 100 µM.
In the case of `C/C(CC(=O)NCCc1ccccc1)=N\NS(=O)(=O)c1ccc(C)cc1`, the TGI in the test on MOLT-4 leukemia, in the test with SK-MEL-5 melanoma, in the test on SNB-75 CNS, with HL-60(TB) leukemia, in the test with UACC-62 melanoma and in the test on OVCAR-8 ovarian was greater than 100 µM each time. The molecule also had a TGI with NCI-H226 lung greater than 100 µM.
`C/C(CC(=O)Nc1cccc(Cl)c1C)=N\NC(N)=S`: the TGI in the test with MOLT-4 leukemia, in the test on SK-MEL-5 melanoma, with SNB-75 CNS, in the test with HL-60(TB) leukemia, in the test on UACC-62 melanoma and with OVCAR-8 ovarian was greater than 100 µM throughout. Also, the TGI in the test on NCI-H226 lung was greater than 100 µM.
On to `COc1cc2c(cc1OC)C(C(=O)O)C(c1ccccc1)N(C)C2=O` (stereo unspecified), for which the TGI with MOLT-4 leukemia, with SK-MEL-5 melanoma, in the test on SNB-75 CNS, in the test with UACC-62 melanoma and with OVCAR-8 ovarian was greater than 100 µM in each case.
Turning to `CC(C)/C=C1\CCC(CN2CCOCC2)C1=O` (stereo unspecified), the TGI with MOLT-4 leukemia was 10.2 µM; in the test with SK-MEL-5 melanoma, 36.8 µM; in the test with HL-60(TB) leukemia, 5.58 µM; in the test on HCT-15 colon, 19.2 µM; in the test with UACC-62 melanoma it was 36.3 µM; in the test with OVCAR-8 ovarian, greater than 40.8 µM. In the test on NCI-H226 lung, the TGI came out at 94.8 µM.
With `[N-]=[N+]=NC(c1cn(C2CC(O)C(CO)O2)c(=O)[nH]c1=O)C(Cl)Br` (stereo unspecified), the TGI in the test on MOLT-4 leukemia, with SK-MEL-5 melanoma, in the test with SNB-75 CNS, with HL-60(TB) leukemia, in the test on HCT-15 colon and in the test with OVCAR-8 ovarian was greater than 100 µM throughout. The TGI in the test on NCI-H226 lung was greater than 100 µM.
With `Cc1cc(N(CCC#N)S(=O)(=O)c2ccccc2)ccc1/C=C1\N=C(c2ccc(Cl)cc2)OC1=O`, the TGI in the test with MOLT-4 leukemia, in the test with SK-MEL-5 melanoma, with HL-60(TB) leukemia, in the test with HCT-15 colon, with UACC-62 melanoma and in the test with OVCAR-8 ovarian was greater than 100 µM throughout. In the test with NCI-H226 lung, the TGI is greater than 100 µM.
As for `C=CC(=O)N1C/C(=C\c2ccc(Cl)c(Cl)c2)C(=O)/C(=C/c2ccc(Cl)c(Cl)c2)C1`, the TGI in the test on MOLT-4 leukemia was determined as 0.38 µM; in the test on SK-MEL-5 melanoma, 1.74 µM; in the test with SNB-75 CNS, 0.676 µM; with HCT-15 colon, 0.201 µM; in the test with UACC-62 melanoma, 0.687 µM; in the test with OVCAR-8 ovarian it was 0.274 µM. Further, the TGI in the test with NCI-H226 lung is 2.73 µM.
For `COC1C(OC(=O)c2ccc(C)[nH]2)C(O)C(Oc2ccc3c(O)c(NC(=O)c4c[nH]c(C(=O)Nc5c(O)c6ccc(OC7OC(C)(C)C(OC)C(OC(=O)c8ccc(C)[nH]8)C7O)c(C)c6oc5=O)c4C)c(=O)oc3c2C)OC1(C)C` (stereo unspecified), the TGI in the test on MOLT-4 leukemia was 8.47 µM; in the test with SK-MEL-5 melanoma, 6.51 µM; in the test on SNB-75 CNS it was 4.85 µM; in the test with HCT-15 colon, 7.06 µM; in the test on UACC-62 melanoma it was 2.37 µM; with OVCAR-8 ovarian, greater than 100 µM. Also, in the test with NCI-H226 lung, the TGI was 3.84 µM.
